Results as given in PMC8271926, “1,3,5-Triazine Nitrogen Mustards with Different Peptide Group as Innovative Candidates for AChE and BACE1 Inhibitors” (Molecules, 2021).
Where two headings read alike, the source gives them in different places.

Experiments:
[1] = biological target: T1, BACE1 (from equine serum) (Homo sapiens, UniProt P56817); assay: In vitro BACE1 inhibition, FRET assay; type: biochemical
T1 construct: purchased Sigma-Aldrich CS0010

[2] = biological target: T2, AChE (from electrophorus electricus) (Electrophorus electricus, UniProt O42275); assay: In vitro AChE inhibition, Ellman's colorimetric method; type: biochemical
T2 construct: purchased Sigma-Aldrich C3389
T2 sequence (O42275 24-633): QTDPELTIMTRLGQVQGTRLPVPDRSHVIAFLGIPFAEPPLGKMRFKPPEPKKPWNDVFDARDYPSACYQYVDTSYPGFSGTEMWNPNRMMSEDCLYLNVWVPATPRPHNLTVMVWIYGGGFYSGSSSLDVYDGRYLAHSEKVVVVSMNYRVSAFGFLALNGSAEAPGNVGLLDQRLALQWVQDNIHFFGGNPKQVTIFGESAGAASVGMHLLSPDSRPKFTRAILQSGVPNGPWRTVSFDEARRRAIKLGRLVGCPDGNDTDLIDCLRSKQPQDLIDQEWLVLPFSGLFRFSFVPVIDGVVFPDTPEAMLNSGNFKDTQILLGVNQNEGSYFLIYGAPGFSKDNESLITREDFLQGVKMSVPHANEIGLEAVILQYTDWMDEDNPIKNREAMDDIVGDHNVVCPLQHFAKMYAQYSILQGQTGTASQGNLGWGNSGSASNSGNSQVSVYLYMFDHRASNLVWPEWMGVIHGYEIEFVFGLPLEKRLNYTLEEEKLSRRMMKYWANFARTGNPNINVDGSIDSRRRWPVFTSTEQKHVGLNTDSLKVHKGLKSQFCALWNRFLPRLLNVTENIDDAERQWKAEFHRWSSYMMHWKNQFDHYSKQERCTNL

AChE = details: Jameel et al.; read-out: AChE inhibition IC50; cited from earlier work
BACE-1 = details: in vitro; cited from earlier work
GSK-3β = details: in vitro; cited from earlier work
[3] = cell-based assays; cited from earlier work
BACE1 [4] = details: Yazdani et al.; cited from earlier work
BACE1 [5] = details: Iraji et al.; cited from earlier work
[6] = mean ± SD of three independent experiments, read-out: BACE1 IC50

T1 sequence (P56817 46-457 limits assumed): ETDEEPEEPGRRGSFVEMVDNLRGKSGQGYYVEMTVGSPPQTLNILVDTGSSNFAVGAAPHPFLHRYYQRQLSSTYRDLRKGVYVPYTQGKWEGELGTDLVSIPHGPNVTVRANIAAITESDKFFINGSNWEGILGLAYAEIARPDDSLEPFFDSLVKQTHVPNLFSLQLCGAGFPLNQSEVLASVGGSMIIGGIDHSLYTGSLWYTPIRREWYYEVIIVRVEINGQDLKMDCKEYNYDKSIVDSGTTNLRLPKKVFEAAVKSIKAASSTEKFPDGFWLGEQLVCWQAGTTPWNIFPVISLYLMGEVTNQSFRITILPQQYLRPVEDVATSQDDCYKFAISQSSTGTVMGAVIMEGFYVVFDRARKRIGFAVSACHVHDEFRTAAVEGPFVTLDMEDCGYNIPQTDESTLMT

Compound	IC50 [1, 6] [µM]	IC50 [2] [µM]	further results
COC(=O)C(C)NC(=O)C(CCCCNC(=O)OC(C)(C)C)Nc1nc(OC)nc(N2CCN(CCCl)CC2)n1 (stereo not drawn) [4a, 2-[4-(2-Chloroethyl)Piperazin-1-yl]-4-Methoxy-6-(NH-Lys(Boc)-Ala -OMe)-1,3,5-Triazine]	11.1 ± 2.29	0.055 ± 0.001	
COC(=O)C(C)NC(=O)C(CC(=O)OC(C)(C)C)Nc1nc(OC)nc(N2CCN(CCCl)CC2)n1 (stereo not drawn) [4b, 2-[4-(2-Chloroethyl)Piperazin-1-yl]-4-Methoxy-6-(NH-Asp(OtBu)-Ala-OMe)-1,3,5-Triazine]	33.8 ± 3.91	0.065 ± 0.002	
COC(=O)C(C)NC(=O)C(Cc1cn(C(=O)OC(C)(C)C)c2ccccc12)Nc1nc(OC)nc(N2CCN(CCCl)CC2)n1 (stereo not drawn) [4c, 2-[4-(2-Chloroethyl)Piperazin-1-yl]-4-Methoxy-6-(NH-Trp(Boc)-Ala-OMe)-1,3,5-Triazine]	18.1 ± 2.69	0.114 ± 0.012	
COC(=O)C(C)NC(=O)C(COCc1ccccc1)Nc1nc(OC)nc(N2CCN(CCCl)CC2)n1 (stereo not drawn) [4d, 2-[4-(2-Chloroethyl)Piperazin-1-yl]-4-Methoxy-6-(NH-Ser (Bn)-Ala -OMe) -1,3,5-Triazine]	58.1 ± 9.69	0.387 ± 0.054	
COC(=O)C(C)NC(=O)C(C)(C)Nc1nc(OC)nc(N2CCN(CCCl)CC2)n1 (stereo not drawn) [4e, 2-[4-(2-Chloroethyl)Piperazin-1-yl]-4-Methoxy-6-(NH-Aib-Ala-OMe) -1,3,5 -Triazine]	51 ± 7.99	0.789 ± 0.031	
COC(=O)C(C)NC(=O)C(CCCNC(=N)N[N+](=O)[O-])Nc1nc(OC)nc(N2CCN(CCCl)CC2)n1 (stereo not drawn) [4f, 2-[4-(2-Chloroethyl)Piperazin-1-yl]-4-Methoxy-6-(NH-Arg(NO2)-Ala-OMe) -1,3,5-Triazine]	52 ± 8.55	1.44 ± 0.029	
COC(=O)C(C)NC(=O)C(Cc1c[nH]c2ccccc12)Nc1nc(OC)nc(N2CCN(CCCl)CC2)n1 (stereo not drawn) [4g, 2-[4-(2-Chloroethyl)Piperazin-1-yl]-4-Methoxy-6-(NH-Trp-Ala-OMe)- 1,3,5- Triazine]	28.1 ± 3.69	0.122 ± 0.014	
COC(=O)C(C)NC(=O)C(Cc1cn(S(=O)(=O)c2ccc(C)cc2)cn1)Nc1nc(OC)nc(N2CCN(CCCl)CC2)n1 (stereo not drawn) [4h, 2-[4-(2-Chloroethyl)Piperazin-1-yl]-4-Methoxy-6-(NH-His(Ts)-Ala-OMe)-1,3,5-Triazine]			IC50 ([1]; read-out: BACE1 IC50, mean ± SD of three independent experiments): 14.2 ± 3.45 µM; IC50 ([2]; read-out: AChE IC50, AChE from electric eel, Ellman's method, mean ± SD of three independent experiments): 0.067 ± 0.003 µM
ClCCN1CCN(c2nc(Nc3ccccc3)nc(N3CCN(CCCl)CC3)n2)CC1 [A]	9 ± 0.22	0.051 ± 0.001	
Cc1cccc(Nc2nc(Cl)nc(N3CCN(c4cc(C)nc5ccnn45)CC3)n2)c1 [C]			IC50 (AChE): 0.065 µM
COc1ccc(Nc2nc(Cl)nc(N3CCN(c4cc(C)nc5ccnn45)CC3)n2)cc1 [D]			IC50 (AChE): 0.092 µM
NC1=NC(c2ccc(F)cc2)NC(=O)N1 (stereo not drawn) [E]			IC50 (BACE-1): 18.03 ± 0.01 µM; IC50 (GSK-3β): 14.7 ± 0.78 µM; neuroprotective and neurogenic activities [3]: effective; neurotoxicity [3]: no neurotoxicity
Clc1ccc(Cn2cc(COc3ccc(/C=N/Nc4nnc(-c5ccccc5)c(-c5ccccc5)n4)cc3)nn2)cc1 [F]			IC50 (BACE1 [4]): 8.55 ± 3.37 µM
O=[N+]([O-])c1ccc(Cn2cc(COc3ccc(/C=N/Nc4nnc(-c5ccccc5)c(-c5ccccc5)n4)cc3)nn2)cc1 [G]			IC50 (BACE1 [4]): 11.4 ± 2.01 µM
Oc1ccc(/C=N/Nc2nnc(-c3cccs3)c(-c3cccs3)n2)c(O)c1 [H]			IC50 (BACE1 [5]): 0.91 µM
